Measurements: patent US9078899B2, “Pyrazolyl-based carboxamides II” (Grünenthal GmbH, priority 2013, dated 2015)

Columns and labels:
[1] = test system: Interleukin-2 (IL-2) production/release; experiment: Jurkat IL-2 Production Assay; format: cell-based; details: Homo sapiens; Jurkat T cells clone E6-1, 15 μg/ml PHA for 22 hours, IL-2 in supernatant
Protocol: Jurkat IL-2 Production Assay
The effect of compounds of the invention on Interleukin-2 (IL-2) production/release was tested in the Jurkat T cell line (ECACC) clone E6-1.
Jurkat T cells were cultured in DMEM/F12/Glutamax (Gibco) containing 10% FCS (Gibco), and maintained at 37° C., 5% CO2. Cell were split twice a week [5*10^6 (Mon-Thu) and 1*10^7 (Thu-Mon) cells/50 ml medium in T-175 ZK culture flasks, respectively].
Prior to experiment, cells were seeded on 96 well plates (Cellstar 96 Well; Cat No. 655180, Greiner bio-one) at a density of 5*10^5 cells/well in DMEM/F12/Glutamax (Gibco) containing 10% FCS (Gibco), and incubated for 60 min at 37° C., 5% CO2. Subsequently, compounds were added and cells were allowed to incubate for 30 min at 37° C., 5% CO2. Cells were then stimulated with 15 μg/ml Phytohemagglutinin (PHA; Sigma) for 22 hours at 37° C., 5% CO2.
Before sampling of the supernatants, cells were spun down (200*g/5 min/RT). The amount of IL-2 released into the supernatant was quantified with the human IL-2 AlphaLisa kit (Perkin Elmer) according to manufacturer's instructions. Luminescence proximity measurements were carried out in the Synergy H4 reader (BioTek) employing the fluorescence setting of the reader (ex: 680/30 nm; em: 620/40 nm).
Inhibition of IL-Production/Release in/from Jurkat T Cells was Quantified as Follows:
Zero percent inhibition (MAX) was defined as the [IL-2] determined in supernatants derived from cells to which PHA & DMSO-only had been added instead of compound. Hundred percent inhibition (MIN) was defined as the [IL-2] determined in supernatants derived from cells that had been pre-treated with 1 μM CyclosporineA (Sigma) before the addition of 15 μg/ml PHA.
For routine IC50 determinations of compounds, 8 concentrations of a serial dilution (1:3.16) were tested, starting off from 10 μM.

CRAC channel = biological target: T1, CRAC channel (Homo sapiens, UniProt Q96D31); experiment: HEK Calcium Influx Assay (FLIPR); format: cell-based; details: 10 μM; endogenous SOC in HEK293 cells, thapsigargin store depletion, Ca2+ signal 9.5-10 min post-administration; read-out: % inhib.[@ 10 μM] FLIPR
T1 construct: host or cells: HEK293
T1 sequence (Q96D31 whole entry): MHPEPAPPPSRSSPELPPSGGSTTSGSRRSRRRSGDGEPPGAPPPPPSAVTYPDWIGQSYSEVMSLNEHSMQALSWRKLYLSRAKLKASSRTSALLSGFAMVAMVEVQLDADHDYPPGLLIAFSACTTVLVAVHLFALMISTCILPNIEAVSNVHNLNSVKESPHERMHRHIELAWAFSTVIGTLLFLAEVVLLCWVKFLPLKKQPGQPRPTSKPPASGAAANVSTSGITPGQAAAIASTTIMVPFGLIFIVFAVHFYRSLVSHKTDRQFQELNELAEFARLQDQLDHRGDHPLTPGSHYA
Protocol: The effect of compounds of the invention on intracellular [Ca^2+] was tested in the HEK293 cell line (ECACC).
HEK293 cells were cultured in DMEM/F12/Glutamax (Gibco) containing 10% FCS (Gibco), and maintained at 37° C., 5% CO2. Cell were split twice a week [3*10^6 (Mon-Thu) and 1*10^6 (Thu-Mon) cells/50 ml medium in T-175 ZK culture flasks, respectively]. Twenty four hours pre-experiment, cells were seeded on 96 well plates (Poly-D-Lysine 96well Black/Clear Plate, BD Biocoat REF 356640) at a density of 40,000 cells/well in DMEM/F12 (Gibco) containing 10% FCS (Gibco), and maintained at 37° C., 5% CO2.
Prior to store-depletion, cell culture medium was removed and cells were loaded with the a Calcium-sensitive fluorescent dye comprised within the Calcium-4-assay kit (Molecular Devices) in nominally Ca^2+-free HBS buffer (140 mM NaCl, 4 mM KCl, 0.2 mM MgCl2, 11 mM D-glucose, and 10 mM HEPES, pH 7.4) according to manufacturer's instruction for 60 min at 37° C., 5% CO2.
Passive depletion of intracellular Ca^2+-stores was then triggered by employing the SERCA inhibitor thapsigargin (2 μM final) for 10 min in the dark (RT). To prevent immediate Ca^2+-entry via the activated Store-operated channels (SOCs), cells were maintained in Ca^2+-free HBS buffer comprising 100 μM EGTA during store-depletion.
Intracellular changes in [Ca^2+] were subsequently monitored with the FLIPR device (Molecular Devices). In brief, baseline imaging post-store depletion was allowed for 1 min before adjusting the extracellular buffer to 3 mM CaCl2. Increases in intracellular [Ca^2+] due to pre-activated SOC channels were monitored for 15 min until intracellular Ca^2+ levels had declined into a steady-state. Finally, compounds were administered and Ca^2+ signals were recorded for additional 10 min.
Inhibition of endogenous SOC in HEK293 cells was quantified employing the average Ca^2+ signal measured from 9.5-10 min post-administration. Zero percent inhibition (MAX) was defined as the Ca^2+ signal recorded from wells to which DMSO-only had been added instead of compound. Hundred percent inhibition (MIN) was defined as the signal obtained from wells in which cells haven't been treated with TG prior to Ca^2+ addition and to which DMSO-only had been added instead of compound. For routine IC50 determinations of compounds, 8 concentrations of a serial dilution (1:3.16) were tested, starting off from 10 μM. Reliable IC50's could consequently be determined only, if they were at least sub 2.5-3 μM.

Structure (SMILES) | IC50 [1] | inhibition at 10 µM (CRAC channel)
COc1ccc(OC)c(-c2cc(C(=O)Nc3ccncc3C#N)nn2C)c1 [Example 15, N-(3-Cyano-pyridin-4-yl)-5-(2,5-dimethoxyphenyl)-1-methyl-1H-pyrazole-3-carboxylic acid amide] | 1 to 5 µM | 50 to 70%
COc1ccc(OC)c(-c2c(C)c(C(=O)Nc3ccncc3F)nn2C)c1 [Example 25, 5-(2,5-Dimethoxyphenyl)-N-(3-fluoro-pyridin-4-yl)-1,4-dimethyl-1H-pyrazole-3-carboxylic acid amide] | 0.5 to 1 µM | > 70%
Cc1ccc(Cl)cc1-c1cc(C(=O)Nc2c(F)cccc2F)nn1C [Example 26, 5-(5-Chloro-2-methyl-phenyl)-N-(2,6-difluoro-phenyl)-1-methyl-1H-pyrazole-3-carboxylic acid amide] | 1 to 5 µM | > 70%
COc1ccc(OC)c(-c2cc(C(=O)Nc3ccccc3C)nn2C)c1 [Example 27, 5-(2,5-Dimethoxyphenyl)-1-methyl-N-(o-tolyl)-1H-pyrazole-3-carboxylic acid amide] | 1 to 5 µM | > 70%
COc1ccc(OC)c(-c2cc(C(=O)Nc3c(C)cccc3F)nn2C)c1 [Example 32, 5-(2,5-Dimethoxyphenyl)-N-(2-fluoro-6-methyl-phenyl)-1-methyl-1H-pyrazole-3-carboxylic acid amide] | < 0.5 µM | > 70%
COc1ccc(OC)c(-c2cc(C(=O)Nc3c(F)cncc3F)nn2C)c1 [Example 34, N-(3,5-Difluoro-pyridin-4-yl)-5-(2,5-dimethoxyphenyl)-1-methyl-1H-pyrazole-3-carboxylic acid amide] | < 0.5 µM | > 70%
CCc1c(C(=O)Nc2c(F)cccc2F)nn(C)c1-c1cc(OC)ccc1OC [Example 42, N-(2,6-Difluoro-phenyl)-5-(2,5-dimethoxyphenyl)-4-ethyl-1-methyl-1H-pyrazole-3-carboxylic acid amide] | 1 to 5 µM | 50 to 70%
Cn1nc(C(=O)Nc2c(F)cccc2F)cc1-c1cc(OC(F)(F)F)ccc1C1CC1 [Example 45, 5-[2-Cyclopropyl-5-(trifluoromethyloxy)-phenyl]-N-(2,6-difluoro-phenyl)-1-methyl-1H-pyrazole-3-carboxylic acid amide] | 0.5 to 1 µM | > 70%
Cn1nc(C(=O)Nc2c(F)cncc2F)cc1-c1cc(OC(F)(F)F)ccc1C1CC1 [Example 46, 5-[2-Cyclopropyl-5-(trifluoromethyloxy)-phenyl]-N-(3,5-difluoro-pyridin-4-yl)-1-methyl-1H-pyrazole-3-carboxylic acid amide] | < 0.5 µM | > 70%

More lines, now with the values ahead:

IC50 [1] | inhibition at 10 µM (CRAC channel) | Structure (SMILES)
0.5 to 1 µM | > 70% | Cn1nc(C(=O)Nc2c(F)cccc2F)cc1-c1ccc(OC(F)(F)F)cc1Cl [Example 12, 5-[2-Chloro-4-(trifluoromethyloxy)-phenyl]-N-(2,6-difluoro-phenyl)-1-methyl-1H-pyrazole-3-carboxylic acid amide]
1 to 5 µM | > 70% | COc1ccc(OC)c(-c2cc(C(=O)Nc3cnccc3C)nn2C)c1 [Example 16, 5-(2,5-Dimethoxyphenyl)-1-methyl-N-(4-methyl-pyridin-3-yl)-1H-pyrazole-3-carboxylic acid amide]
1 to 5 µM | 50 to 70% | COc1ccc(OC)c(-c2cc(C(=O)Nc3cnc(C)cc3C)nn2C)c1 [Example 17, 5-(2,5-Dimethoxyphenyl)-N-(4,6-dimethyl-pyridin-3-yl)-1-methyl-1H-pyrazole-3-carboxylic acid amide]
1 to 5 µM | < 50% | COc1ccc(OC)c(-c2cc(C(=O)Nc3ncncc3C)nn2C)c1 [Example 18, 5-(2,5-Dimethoxyphenyl)-1-methyl-N-(5-methyl-pyrimidin-4-yl)-1H-pyrazole-3-carboxylic acid amide]
0.5 to 1 µM | > 70% | COc1ccc(OC)c(-c2cc(C(=O)Nc3ccncc3C)nn2C)c1 [Example 20, 5-(2,5-Dimethoxyphenyl)-1-methyl-N-(3-methyl-pyridin-4-yl)-1H-pyrazole-3-carboxylic acid amide]
< 0.5 µM | > 70% | COc1ccc(OC)c(-c2cc(C(=O)Nc3c(F)cccc3F)nn2C)c1 [Example 21, N-(2,6-Difluoro-phenyl)-5-(2,5-dimethoxyphenyl)-1-methyl-1H-pyrazole-3-carboxylic acid amide]
0.5 to 1 µM | > 70% | Cc1ccc(C(F)(F)F)cc1-c1cc(C(=O)Nc2c(F)cccc2F)nn1C [Example 30, N-(2,6-Difluoro-phenyl)-1-methyl-5-[2-methyl-5-(trifluoromethyl)-phenyl]-1H-pyrazole-3-carboxylic acid amide]
< 0.5 µM | > 70% | COc1cc(F)c(NC(=O)c2cc(-c3cc(OC)ccc3OC)n(C)n2)c(F)c1 [Example 31, N-(2,6-Difluoro-4-methoxy-phenyl)-5-(2,5-dimethoxyphenyl)-1-methyl-1H-pyrazole-3-carboxylic acid amide]
< 0.5 µM | > 70% | COc1ccc(OC)c(-c2cc(C(=O)Nc3c(F)cccc3Cl)nn2C)c1 [Example 35, N-(2-Chloro-6-fluoro-phenyl)-5-(2,5-dimethoxyphenyl)-1-methyl-1H-pyrazole-3-carboxylic acid amide]
< 0.5 µM | > 70% | Cn1nc(C(=O)Nc2c(F)cccc2F)cc1-c1cc(C(F)(F)F)ccc1Cl [Example 36, 5-[2-Chloro-5-(trifluoromethyl)-phenyl]-N-(2,6-difluoro-phenyl)-1-methyl-1H-pyrazole-3-carboxylic acid amide]
< 0.5 µM | > 70% | COc1ccc(OC)c(-c2c(Cl)c(C(=O)Nc3c(F)cccc3F)nn2C)c1 [Example 39, 4-Chloro-N-(2,6-difluoro-phenyl)-5-(2,5-dimethoxyphenyl)-1-methyl-1H-pyrazole-3-carboxylic acid amide]
1 to 5 µM | > 70% | COc1ccc(OC)c(-c2c(Cl)c(C(=O)Nc3ccncc3F)nn2C)c1 [Example 40, 4-Chloro-5-(2,5-dimethoxyphenyl)-N-(3-fluoro-pyridin-4-yl)-1-methyl-1H-pyrazole-3-carboxylic acid amide]
1 to 5 µM | < 50% | COc1ccc(OC)c(-c2c(CO)c(C(=O)Nc3c(F)cccc3F)nn2C)c1 [Example 43, N-(2,6-Difluoro-phenyl)-5-(2,5-dimethoxyphenyl)-4-(hydroxymethyl)-1-methyl-1H-pyrazole-3-carboxylic acid amide]
1 to 5 µM | 50 to 70% | COc1ccc(OC)c(-c2c(N)c(C(=O)Nc3c(F)cccc3F)nn2C)c1 [Example 44, 4-Amino-N-(2,6-difluoro-phenyl)-5-(2,5-dimethoxyphenyl)-1-methyl-1H-pyrazole-3-carboxylic acid amide]
